Data published in paper PMC8205030, “Methoxy and bromo scans on N-(5-methoxyphenyl) methoxybenzenesulphonamides reveal potent cytotoxic compounds, especially against the human breast adenocarcinoma MCF7 cell line” (Journal of Enzyme Inhibition and Medicinal Chemistry, 2021).

Columns and labels:
Format in all cases: cell-based, human
HT-29 cells = test: Cell cycle analysis (PI, flow cytometry), HT-29
Protocol: MCF7, HeLa, and HT-29 cell cycle analyses were performed by quantifying the DNA content by flow cytometry. Cells in the exponential growth phase at 2 × 10^4 cells/mL were seeded in 24-well plates (1 ml/well). After 24 h incubation, cells were treated with compound 25 at 87.5 or 175 nM. After 24, 48, and 72 h treatments, live and dead cells were collected and fixed in ice-cold ethanol:PBS (7:3) and stored at 4 °C for later use. Cells were rehydrated with phosphate-buffered saline (PBS), treated with 100 µg/mL RNase A (Sigma-Aldrich Co., St. Louis, MO, USA), and stained overnight in darkness at room temperature with 50 µg/mL propidium iodide (PI) (Sigma-Aldrich Co.). Cell cycle profiles were then analysed by flow cytometry using BD Accuri™ C6 Plus Flow Cytometer (BD Biosciences, San José, CA, USA). Data were analysed with BD Accuri™ C6 Software (version 1.0.264.21, BD Biosciences, San José, CA, USA) and compared to control cells treated with 0.5% (v/v) DMSO. Compounds were dissolved in DMSO and the final solvent concentrations never exceeded 0.5% (v/v).

[1] = system: microtubule network of HeLa cells; test: Immunofluorescence of microtubule network, HeLa; details: 175 nM, 72 h, confocal microscopy
Protocol: MCF7, HeLa, and HT-29 cells were grown on round glass coverslips coated with poly-L-lysine (12 mm diameter). To reach appropriate cell confluence, coverslips were manipulated in 6-well plates (3 coverslips/well) seeding 3 ml/well of cells in the exponential growth phase at 2 × 10^4 cells/mL. After 24 h incubation, cells were treated with compound 25 at 175 nM and incubated for 72 h. Cells were washed with PBS, fixed with 4% formaldehyde in PBS for 10 min, permeabilized with 0.5% Triton X-100 (Boehringer Mannheim, Ingelheimam Rhein, Germany) in PBS for 10 min, and blocked with 10% BSA in PBS for 30 min. Then, coverslips were incubated with anti-α-tubulin mouse monoclonal antibody (diluted 1:200 in 3% BSA/PBS) (Sigma-Aldrich Co.) and anti-SQSTM1/p62 rabbit monoclonal antibody (diluted 1:100 in 3% BSA/PBS) (Abcam) for 1 h 30 min. After PBS washing, coverslips were incubated with fluorescent secondary antibodies Alexa Fluor 488 goat anti-mouse IgG and Alexa Fluor 594 anti-rabbit (both diluted 1:400 in 1% BSA/PBS) (Molecular Probes, Invitrogen, Thermo Fischer Scientific) for 1 h in darkness. […] Cells were analysed by confocal microscopy using a LEICA SP5 microscope DMI-6000V model coupled to a LEICA LAS AF software computer.

p-62 in HeLa cells = test: Western blot of autophagosome marker p-62, HeLa; details: 175 nM, 24 h
Protocol: (§1) MCF7, HeLa and HT-29 cells in an exponential growth phase at 2 × 10^4 cells/mL were seeded in Petri dishes (20 × 100 mm) (10 ml/dish). After 24 h incubation, cells were treated with compound 25 at 175 nM, and the levels of p-62 in treated and untreated cells were measured at 24 h post-treatment. The culture medium was removed, cells were washed with PBS and resuspended in 1 ml lysis buffer (50 mM Tris, 130 mM NaCl, 1 mM EDTA, 1% Triton X-100) containing protease inhibitors (Complete, Roche Applied Science, Indianapolis). Cells were harvested and incubated with lysis buffer for 30 min at 4 °C in constant agitation. Cell extracts were centrifuged at 12,000 rpm for 15 min at 4 °C and the supernatants were stored at −80 °C. Protein concentrations were determined using Bradford (BioRad, Hercules, CA) method taking BSA (Bovine Serum Albumin) as standard. Protein extracts were used for electrophoresis mixing with loading buffer (4% SDS, 0.05% bromophenol blue, 20% glycerine, 2% β-mercaptoethanol, and Tris 100 mM at pH 6.8). Proteins were then denatured at 95 °C for 7 min. Protein samples (50 μg/lane) were subjected to electrophoresis on 8% acrylamide gel and SDS-PAGE running buffer at constant voltage (140 V). Then, acrylamide gels were transferred to a PVDF membrane (Merck Millipore, Burlington, Massachusetts, USA) using a semi-dry transfer system for 30 min at constant voltage (15 V). […]

p-62 in HT-29 cells = test: Western blot of autophagosome marker p-62, HT-29; details: HT-29, 175 nM, 24 h
Protocol: as §1

[2] = HT-29, 48 h, concentration not specified

In the case of `COc1ccc(S(=O)(=O)N(CC#N)c2cc(OC)c(Br)cc2OC)cc1` [Compound 25, N-(4-bromo-2,5-dimethoxyphenyl)-N-(cyanomethyl)-4-methoxybenzenesulphonamide], the “Cells at G2/M phase” value (HT-29 cells; HT-29, 87.5 nM, 24 h) is reported as 90%, the “Cells at G2/M phase” value (HT-29 cells; HT-29, 87.5 nM, 72 h) is reported as 58% and the subG0/G1 population (HT-29 cells; HT-29, 87.5 nM, 72 h) is reported as 23%. For the same molecule, the “Cells at G2/M phase” value (HT-29 cells; HT-29, 175 nM, 24 h) was 83%, the “Cells at G2/M phase” value (HT-29 cells; HT-29, 175 nM, 72 h) was 54% and the subG0/G1 population (HT-29 cells; HT-29, 175 nM, 72 h) was 31%. The “Cells at G2/M phase” value (HT-29 cells; [2]) was 84%, the subG0/G1 population (HT-29 cells; [2]) was 9% and the “Effect on microtubule network” value [1] was “disrupted the microtubule network”. The p-62 levels (p-62 in HeLa cells) was “almost complete reduction in the expression of p-62” and the p-62 levels (p-62 in HT-29 cells) was “almost complete reduction in the expression of p-62”.
